Reference: article PMC5037830 (2016)

Columns and labels:
[1] = test system: dsDNA (ds-oligonucleotide, oligonucleotides 1 and 2) (DNA, duplex) AAATTAATATGTATTGTATATAAATTATT/AATAATTTATATACAATACATATTAATTT; experiment: UV melting (260 nm); settings: 0.1 M NaCl, 0.01 M MgCl2
[2] = test system: dsDNA (ds-oligonucleotide, oligonucleotides 1 and 2) (DNA, duplex) AAATTAATATGTATTGTATATAAATTATT/AATAATTTATATACAATACATATTAATTT; experiment: circular dichroism; settings: Na+ (TBS); TBS pH 7.4, 1 mM EDTA, 37 °C; 2.5 µM compound, 2.5 µM duplex

Nc1c2ccccc2nc2ccccc12
ΔTm ([1]; derived from two Tm (78.00 ± 0.00, control 64.97 ± 0.20), 100 µM): 13.03 °C

O=C1Oc2ccccc2C(=O)C1=CNCCCN1CCN(CCCNC=C2C(=O)Oc3ccccc3C2=O)CC1
ΔTm ([1]; derived from two Tm (64.02 ± 0.00, control 64.97 ± 0.20), 15 µM, change called negligible): -0.95 °C

Nc1c(C(=O)NCCCN2CCN(CCCNC(=O)c3cnc4ccccc4c3N)CC2)cnc2ccccc12
binding [2]: yes | ΔTm ([1]; derived from two Tm (70.7 ± 0.71, control 64.97 ± 0.20), text says 7, 15 µM, 0.1% DMSO): 5.73 °C

CN(CCCNC(=O)c1cnc2ccccc2c1N)CCCNC(=O)c1cnc2ccccc2c1N
ΔTm ([1]; derived from two Tm (64.5 ± 0.71, control 64.97 ± 0.20), 15 µM, change called negligible): -0.47 °C

CN(CCCNC=C1C(=O)Oc2ccccc2C1=O)CCCNC=C1C(=O)Oc2ccccc2C1=O
ΔTm ([1]; derived from two Tm (64.07 ± 0.14, control 64.97 ± 0.20), 15 µM, change called negligible): -0.90 °C
